Data taken from publication PMC10893271, “Polymeric Nanoparticles as Oral and Intranasal Peptide Vaccine Delivery Systems: The Role of Shape and Conjugation” (Vaccines, 2024).
No end group written: not given here.

Molecular target: T1, bovine trypsin (Bos taurus, UniProt P00760)
T1 sequence (P00760 24-246): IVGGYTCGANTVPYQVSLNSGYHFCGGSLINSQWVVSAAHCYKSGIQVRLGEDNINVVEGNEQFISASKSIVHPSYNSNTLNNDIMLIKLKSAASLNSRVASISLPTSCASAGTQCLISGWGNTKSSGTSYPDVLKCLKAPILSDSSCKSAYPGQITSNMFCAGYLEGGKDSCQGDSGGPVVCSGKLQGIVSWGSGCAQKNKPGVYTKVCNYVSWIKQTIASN
Assay: In vitro stability against proteolysis
Conditions: bovine trypsin (1000 U/mL stock, 100 µL) with 1 mM CaCl2 in PBS + 400 µL antigen solution (PJ8 1.25 mg/mL in PBS); 37 °C; HPLC with calibration curve

Substance: AKFVAAWTLKAAAQAEDKVKQSREAKKQVEKALKQLEDKVQ-NH2 [PJ8]
- time to full degradation by trypsin: ≤ 30 min
